Data taken from ChEMBL document CHEMBL1148751, “Optimization of the indenone ring of indenoisoquinoline topoisomerase I inhibitors” (2007).

Columns and labels:
Type in all cases: functional
HOP-62 = assay: Cytotoxicity against human HOP62 cells
UACC-62 = assay: Cytotoxicity against human UACC62 cells
HCT-116 = assay: Cytotoxicity against human HCT116 cells
SF-539 = assay: Cytotoxicity against human SF539 cells
OVCAR-3 = assay: Cytotoxicity against human OVCAR-3 cells
DU-145 = assay: Cytotoxicity against human DU145 cells
MDA-MB-435 = assay: Cytotoxicity against human MDA-MB-435 cells
SN12C = assay: Cytotoxicity against human SN12C cells

SMILES | GI50 (HOP-62) | GI50 (UACC-62) | GI50 (HCT-116) | GI50 (SF-539) | GI50 (OVCAR-3) | GI50 (DU-145) | GI50 (MDA-MB-435) | GI50 (SN12C)
O=C1c2ccccc2-c2c1c1ccc([N+](=O)[O-])cc1c(=O)n2CCCCl | 43.6 µM | – | – | – | – | – | – | –
[N-]=[N+]=NCCCn1c2c(c3ccc([N+](=O)[O-])cc3c1=O)C(=O)c1ccccc1-2 | – | 29.5 µM | – | – | – | – | – | –
COc1ccc2c(c1)C(=O)c1c-2n(CCCN=[N+]=[N-])c(=O)c2cc([N+](=O)[O-])ccc12 | < 0.001 µM | – | < 0.001 µM | < 0.001 µM | 0.155 µM | < 0.001 µM | 0.251 µM | –
COc1cc2c3c(n(CCCN=[N+]=[N-])c(=O)c2cc1OC)-c1ccc(N)cc1C3=O | 0.051 µM | 0.026 µM | 0.047 µM | 0.05 µM | 0.214 µM | 0.059 µM | 0.214 µM | 0.148 µM
COc1cc2c3c(n(CCCN=[N+]=[N-])c(=O)c2cc1OC)-c1ccc(N(C)C)cc1C3=O | > 100 µM | > 100 µM | – | > 100 µM | > 100 µM | > 100 µM | > 100 µM | > 100 µM
CCc1ccc2c(c1)C(=O)c1c-2n(CCCN=[N+]=[N-])c(=O)c2cc(OC)c(OC)cc12 | 56.2 µM | 91.2 µM | – | 57.5 µM | > 100 µM | > 100 µM | > 100 µM | > 100 µM
COc1cc2c3c(n(CCCN=[N+]=[N-])c(=O)c2cc1OC)-c1ccccc1C3=O | 3.55 µM | 2.63 µM | 1.82 µM | 4.68 µM | 4.57 µM | 28.2 µM | 9.77 µM | 13.8 µM
COc1cc2c3c(n(CCCN=[N+]=[N-])c(=O)c2cc1OC)-c1ccc(F)cc1C3=O | 4.17 µM | 5.25 µM | 4.17 µM | 3.24 µM | 6.17 µM | 4.17 µM | 38 µM | 8.32 µM
COc1cc2c3c(n(CCCN=[N+]=[N-])c(=O)c2cc1OC)-c1ccc(C#N)cc1C3=O | 14.1 µM | 12.3 µM | 24 µM | 17.4 µM | 17 µM | 33.9 µM | > 100 µM | 15.5 µM
COc1cc2c3c(n(CCCN=[N+]=[N-])c(=O)c2cc1OC)-c1ccc([N+](=O)[O-])cc1C3=O | 89.1 µM | 69.2 µM | > 100 µM | 38.9 µM | > 100 µM | 34.7 µM | > 100 µM | > 100 µM
COc1cc2c3c(n(CCCN)c(=O)c2cc1OC)-c1ccc(N)cc1C3=O | – | 1.38 µM | 0.263 µM | 0.316 µM | 1.82 µM | 2.4 µM | 4.17 µM | 2.57 µM
COc1cc2c3c(n(CCCN)c(=O)c2cc1OC)-c1ccc(N(C)C)cc1C3=O | 17 µM | 21.9 µM | 3.63 µM | 1.9 µM | 17.8 µM | 2.4 µM | 17.8 µM | 17 µM
COc1cc2c3c(n(CCCCl)c(=O)c2cc1OC)-c1ccccc1C3=O | 4.47 µM | 12.3 µM | 2.46 µM | 14.1 µM | 10.7 µM | > 100 µM | > 100 µM | > 100 µM
COC(=O)c1ccc2c(c1)C(=O)c1c-2n(CCCCl)c(=O)c2cc(OC)c(OC)cc12 | > 100 µM | > 100 µM | > 100 µM | – | > 100 µM | > 100 µM | > 100 µM | > 100 µM
COc1cc2c3c(n(CCCCl)c(=O)c2cc1OC)-c1ccc(C#N)cc1C3=O | 14.8 µM | 6.76 µM | 15.1 µM | 7.24 µM | 12.9 µM | 10.7 µM | > 100 µM | 22.9 µM
COc1cc2c3c(n(CCCBr)c(=O)c2cc1OC)-c1ccc(NC(C)=O)cc1C3=O | 1.29 µM | 2.09 µM | 2.57 µM | 3.8 µM | 4.36 µM | 4.68 µM | 13.8 µM | 13.8 µM
Cc1ccc2c(c1)C(=O)c1c-2n(CCCN)c(=O)c2cc([N+](=O)[O-])ccc12 | 0.191 µM | – | 0.229 µM | 0.603 µM | 0.324 µM | 0.115 µM | 0.316 µM | 0.229 µM
NCCCn1c2c(c3ccc([N+](=O)[O-])cc3c1=O)C(=O)c1cc(-c3ccccc3)ccc1-2 | 0.186 µM | 1.51 µM | 0.178 µM | 1.62 µM | 1.82 µM | 0.2 µM | 0.468 µM | 0.437 µM
COc1ccc2c(c1)C(=O)c1c-2n(CCCCl)c(=O)c2cc(OC)c(OC)cc12 | 4.07 µM | 3.02 µM | 8.32 µM | 6.76 µM | 70.8 µM | 4.07 µM | 37.2 µM | 5.5 µM
NCCCn1c2c(c3ccc([N+](=O)[O-])cc3c1=O)C(=O)c1ccccc1-2 | – | – | < 0.005 µM | – | – | 0.014 µM | – | 0.009 µM

SMILES | GI50 (HOP-62) | GI50 (UACC-62) | GI50 (HCT-116) | GI50 (SF-539) | GI50 (OVCAR-3) | GI50 (DU-145) | GI50 (MDA-MB-435) | GI50 (SN12C)
NCCCn1c2c(c3ccc([N+](=O)[O-])cc3c1=O)C(=O)c1cc(I)ccc1-2 | 0.021 µM | < 0.01 µM | < 0.01 µM | 0.044 µM | 1.2 µM | < 0.01 µM | 0.224 µM | < 0.01 µM
NCCCn1c2c(c3ccc([N+](=O)[O-])cc3c1=O)C(=O)c1cc(F)ccc1-2 | < 0.01 µM | < 0.01 µM | < 0.01 µM | 0.028 µM | 0.052 µM | < 0.01 µM | 0.081 µM | 0.034 µM
NCCCn1c2c(c3ccc([N+](=O)[O-])cc3c1=O)C(=O)c1cc(Cl)ccc1-2 | < 0.01 µM | < 0.01 µM | < 0.01 µM | < 0.01 µM | – | < 0.01 µM | – | < 0.01 µM
O=C1c2cc(F)ccc2-c2c1c1ccc([N+](=O)[O-])cc1c(=O)n2CCCBr | 2.29 µM | 2.29 µM | 7.24 µM | – | 46.8 µM | 3.39 µM | 37.2 µM | 27.5 µM
O=C1c2cc(Br)ccc2-c2c1c1ccc([N+](=O)[O-])cc1c(=O)n2CCCCl | 3.63 µM | – | 3.72 µM | 0.661 µM | 0.575 µM | 0.214 µM | 0.282 µM | 0.019 µM
COc1ccc2c(c1)C(=O)c1c-2n(CCCN)c(=O)c2cc(OC)c(OC)cc12 | < 0.01 µM | 0.427 µM | 0.054 µM | 0.115 µM | 0.389 µM | < 0.01 µM | 1.7 µM | 0.141 µM
CCc1ccc2c(c1)C(=O)c1c-2n(CCCN)c(=O)c2cc(OC)c(OC)cc12 | 1.82 µM | 1.82 µM | – | 1.62 µM | 1.51 µM | 1.62 µM | 2 µM | 1.74 µM
COc1cc2c3c(n(CCCN)c(=O)c2cc1OC)-c1ccc(F)cc1C3=O | 0.603 µM | 3.39 µM | 1.38 µM | 1.12 µM | 6.31 µM | 0.575 µM | 6.03 µM | 4.36 µM
COc1cc2c3c(n(CCCN)c(=O)c2cc1OC)-c1ccc(C#N)cc1C3=O | 3.98 µM | 17 µM | 15.9 µM | – | 19.1 µM | 12.3 µM | 18.6 µM | 16.6 µM
COc1cc2c3c(n(CCCN)c(=O)c2cc1OC)-c1ccc([N+](=O)[O-])cc1C3=O | 0.617 µM | 11.5 µM | 1.32 µM | 3.72 µM | 16.6 µM | 2.09 µM | 15.8 µM | 11.7 µM
COc1ccc2c(c1)C(=O)c1c-2n(CCCN=[N+]=[N-])c(=O)c2cc(OC)c(OC)cc12 | 11.5 µM | 20.9 µM | 27.5 µM | 56.2 µM | 49 µM | 26.3 µM | > 100 µM | 64.6 µM
COc1cc2c3c(n(CCCN)c(=O)c2cc1OC)-c1ccccc1C3=O | 0.151 µM | 2.88 µM | < 0.01 µM | 2.82 µM | 0.085 µM | 2.63 µM | 0.631 µM | 0.794 µM
COC(=O)c1ccc2c(c1)C(=O)c1c-2n(CCCN)c(=O)c2cc(OC)c(OC)cc12 | 3.72 µM | 17.4 µM | 16.6 µM | 15.8 µM | 16.6 µM | 17.8 µM | 18.2 µM | 15.1 µM
NCCCn1c2c(c3ccc([N+](=O)[O-])cc3c1=O)C(=O)c1cc(Br)ccc1-2 | 0.033 µM | < 0.01 µM | 0.048 µM | 0.011 µM | 0.295 µM | < 0.01 µM | 0.162 µM | < 0.01 µM
COC(=O)c1ccc2c(c1)C(=O)c1c-2n(CCCN=[N+]=[N-])c(=O)c2cc(OC)c(OC)cc12 | > 100 µM | > 100 µM | > 100 µM | > 100 µM | > 100 µM | > 100 µM | > 100 µM | > 100 µM
COc1cc2c3c(n(CCCN=[N+]=[N-])c(=O)c2cc1OC)-c1ccc(NC(C)=O)cc1C3=O | 50.1 µM | 50.1 µM | 50.1 µM | 50.1 µM | 50.1 µM | 50.1 µM | 50.1 µM | 50.1 µM
COc1cc2c3c(n(CCCBr)c(=O)c2cc1OC)-c1ccc(F)cc1C3=O | 4.17 µM | 3.89 µM | 5.75 µM | 3.55 µM | 24.5 µM | 4.36 µM | 43.7 µM | 15.5 µM
COc1ccc2c(c1)C(=O)c1c-2n(CCCN)c(=O)c2cc([N+](=O)[O-])ccc12 | < 0.01 µM | < 0.01 µM | < 0.01 µM | < 0.01 µM | – | – | – | < 0.01 µM
COc1cc2c3c(n(C)c(=O)c2cc1OC)-c1cc2c(cc1C3=O)OCO2 | 1.3 µM | 4.2 µM | 35 µM | – | – | 37 µM | 96 µM | 68 µM
